Laboratory results as given in ChEMBL document CHEMBL1131748, “Nitroquinolones with broad-spectrum antimycobacterial activity in vitro” (1999).
Values after ≈ are worked out from the molar mass of the structure shown.

Legend:
Format in all cases: functional
Streptococcus [1] = assay: Minimum bactericidal concentration required in vitro against Streptococcus D
[2] = test system: Mycolicibacterium fortuitum; assay: Minimum inhibitory concentration required in vitro to reduce the number of viable of Mycobacterium fortuitum (clinical isolate) by 90%
Salmonella [3] = assay: Minimum bactericidal concentration required in vitro against Salmonella
[4] = test system: Mycobacterium tuberculosis; assay: Minimum inhibitory concentration required in vitro to reduce the number of viable of Mycobacterium tuberculosis ATCC 27294 by 50%
Shigella [5] = assay: Minimum bactericidal concentration required in vitro against Shigella
Mycobacterium avium [6] = assay: Minimum inhibitory concentration required in vitro to reduce the number of viable of Mycobacterium avium complex (MAC) ATCC 49601 by 90%
[7] = test system: Mycolicibacterium smegmatis; assay: Minimum inhibitory concentration required in vitro to reduce the number of viable of Mycobacterium smegmatis ATCC 19420 by 50%
Shigella [8] = assay: Minimum inhibitory concentration required in vitro against Shigella
Salmonella [9] = assay: Minimum inhibitory concentration required in vitro against Salmonella
MT4 = assay: Concentration required to reduce the viability of mock-infected MT-4 cells by 50%; conditions: Homo sapiens
Streptococcus [10] = assay: Minimum inhibitory concentration required in vitro against Streptococcus D
[11] = test system: Mycolicibacterium smegmatis; assay: Minimum inhibitory concentration required in vitro to reduce the number of viable of Mycobacterium smegmatis ATCC 19420 by 90%
[12] = test system: Mycobacterium tuberculosis; assay: Minimum inhibitory concentration required in vitro to reduce the number of viable of Mycobacterium tuberculosis clinical isolate 1104 by 50%
[13] = test system: Mycolicibacterium fortuitum; assay: Minimum inhibitory concentration required in vitro to reduce the number of viable of Mycobacterium fortuitum (clinical isolate) by 50%
Mycobacterium avium [14] = assay: Minimum inhibitory concentration required in vitro to reduce the number of viable of Mycobacterium avium complex (MAC) ATCC 49601 by 50%
Staphylococcus aureus [15] = assay: Minimum inhibitory concentration required in vitro against Staphylococcus aureus
Staphylococcus aureus [16] = assay: Minimum bactericidal concentration required in vitro against Staphylococcus aureus
[17] = test system: Mycobacterium tuberculosis; assay: Minimum inhibitory concentration required in vitro to reduce the number of viable of Mycobacterium tuberculosis clinical isolate 1104 by 90%
[18] = test system: Mycobacterium tuberculosis; assay: Minimum inhibitory concentration required in vitro to reduce the number of viable of Mycobacterium tuberculosis ATCC 27294 by 90%

O=C(O)c1cn(C2CC2)c2cc(NC3CC3)c(F)cc2c1=O
MBC (Streptococcus [1]): 12 µM (≈ 3.63 µg/mL) | MIC90 [2]: > 200 µM | MBC (Salmonella [3]): 12 µM (≈ 3.63 µg/mL) | MIC50 [4]: > 200 µM | MBC (Shigella [5]): 25 µM (≈ 7.56 µg/mL) | MIC90 (Mycobacterium avium [6]): > 200 µM | MIC50 [7]: 150 µM (≈ 45.3 µg/mL) | MIC (Shigella [8]): 12 µM (≈ 3.63 µg/mL) | MIC (Salmonella [9]): 12 µM (≈ 3.63 µg/mL) | CC50 (MT4): > 200 µM | MIC (Streptococcus [10]): 12 µM (≈ 3.63 µg/mL) | MIC90 [11]: > 200 µM | MIC50 [12]: > 200 µM | MIC50 [13]: > 125 µM | MIC50 (Mycobacterium avium [14]): > 200 µM | MIC (Staphylococcus aureus [15]): 12 µM (≈ 3.63 µg/mL) | MBC (Staphylococcus aureus [16]): 12 µM (≈ 3.63 µg/mL)

CC(C)(C)n1cc(C(=O)O)c(=O)c2cc([N+](=O)[O-])c(NC3CC3)cc21
MBC (Streptococcus [1]): 10 µM (≈ 3.45 µg/mL) | MBC (Salmonella [3]): 25 µM (≈ 8.63 µg/mL) | MIC50 [4]: 31 µM (≈ 10.7 µg/mL) | MBC (Shigella [5]): 25 µM (≈ 8.63 µg/mL) | MIC90 (Mycobacterium avium [6]): > 200 µM | MIC50 [7]: 2 µM (≈ 0.691 µg/mL) | MIC (Shigella [8]): 25 µM (≈ 8.63 µg/mL) | MIC90 [17]: > 200 µM | MIC (Salmonella [9]): 25 µM (≈ 8.63 µg/mL) | CC50 (MT4): ≥ 200 µM | MIC (Streptococcus [10]): 5 µM (≈ 1.73 µg/mL) | MIC90 [11]: 7 µM (≈ 2.42 µg/mL) | MIC50 [12]: 47 µM (≈ 16.2 µg/mL) | MIC50 [13]: > 125 µM | MIC90 [18]: > 200 µM | MIC50 (Mycobacterium avium [14]): 47 µM (≈ 16.2 µg/mL) | MIC (Staphylococcus aureus [15]): 2.5 µM (≈ 0.863 µg/mL) | MBC (Staphylococcus aureus [16]): 10 µM (≈ 3.45 µg/mL)

CC1COc2c(N3CCN(C)CC3)c(F)cc3c(=O)c(C(=O)O)cn1c23 (stereo not drawn) [OFLOXACIN]
MBC (Streptococcus [1]): 1.5 µM (≈ 0.542 µg/mL) | MIC90 [2]: 5 µM (≈ 1.81 µg/mL) | MBC (Salmonella [3]): 0.4 µM (≈ 0.145 µg/mL) | MIC50 [4]: 3 µM (≈ 1.08 µg/mL) | MBC (Shigella [5]): 0.4 µM (≈ 0.145 µg/mL) | MIC90 (Mycobacterium avium [6]): 3 µM (≈ 1.08 µg/mL) | MIC50 [7]: 2 µM (≈ 0.723 µg/mL) | MIC (Shigella [8]): 0.4 µM (≈ 0.145 µg/mL) | MIC90 [17]: 3 µM (≈ 1.08 µg/mL) | MIC (Salmonella [9]): 0.4 µM (≈ 0.145 µg/mL) | CC50 (MT4): > 200 µM | MIC (Streptococcus [10]): 1.5 µM (≈ 0.542 µg/mL) | MIC90 [11]: 4 µM (≈ 1.45 µg/mL) | MIC50 [12]: 2 µM (≈ 0.723 µg/mL) | MIC50 [13]: 2 µM (≈ 0.723 µg/mL) | MIC90 [18]: 3 µM (≈ 1.08 µg/mL) | MIC50 (Mycobacterium avium [14]): 1.5 µM (≈ 0.542 µg/mL) | MIC (Staphylococcus aureus [15]): 0.8 µM (≈ 0.289 µg/mL) | MBC (Staphylococcus aureus [16]): 0.8 µM (≈ 0.289 µg/mL)

O=C(O)c1cn(C2CC2)c2cc(N3CCNCC3)c(F)cc2c1=O [CIPROFLOXACIN]
MBC (Streptococcus [1]): 0.8 µM (≈ 0.265 µg/mL) | MBC (Salmonella [3]): 0.01 µM (≈ 0.00331 µg/mL) | MBC (Shigella [5]): 0.01 µM (≈ 0.00331 µg/mL) | MIC90 (Mycobacterium avium [6]): 3 µM (≈ 0.994 µg/mL) | MIC (Shigella [8]): 0.01 µM (≈ 0.00331 µg/mL) | MIC (Salmonella [9]): 0.01 µM (≈ 0.00331 µg/mL) | CC50 (MT4): 60 µM | MIC (Streptococcus [10]): 0.4 µM (≈ 0.133 µg/mL) | MIC90 [18]: 3 µM (≈ 0.994 µg/mL) | MIC50 (Mycobacterium avium [14]): 2 µM (≈ 0.663 µg/mL) | MIC (Staphylococcus aureus [15]): 0.4 µM (≈ 0.133 µg/mL) | MBC (Staphylococcus aureus [16]): 0.4 µM (≈ 0.133 µg/mL)

CC(C)(C)Nc1cc2c(cc1F)c(=O)c(C(=O)O)cn2C(C)(C)C
MBC (Streptococcus [1]): 12 µM (≈ 4.01 µg/mL) | MIC90 [2]: 129 µM (≈ 43.1 µg/mL) | MBC (Salmonella [3]): 12 µM (≈ 4.01 µg/mL) | MIC50 [4]: 126 µM (≈ 42.1 µg/mL) | MBC (Shigella [5]): 25 µM (≈ 8.36 µg/mL) | MIC50 [7]: 34.5 µM (≈ 11.5 µg/mL) | MIC (Shigella [8]): 12 µM (≈ 4.01 µg/mL) | MIC (Salmonella [9]): 12 µM (≈ 4.01 µg/mL) | CC50 (MT4): > 200 µM | MIC (Streptococcus [10]): 12 µM (≈ 4.01 µg/mL) | MIC90 [11]: > 200 µM | MIC50 [12]: > 200 µM | MIC50 [13]: 36 µM (≈ 12 µg/mL) | MIC90 [18]: ≥ 200 µM | MIC50 (Mycobacterium avium [14]): > 200 µM | MIC (Staphylococcus aureus [15]): 12 µM (≈ 4.01 µg/mL) | MBC (Staphylococcus aureus [16]): 12 µM (≈ 4.01 µg/mL)

CC(C)(C)Nc1cc2c(cc1[N+](=O)[O-])c(=O)c(C(=O)O)cn2C(C)(C)C
MBC (Streptococcus [1]): 0.05 µM (≈ 0.0181 µg/mL) | MBC (Salmonella [3]): 6 µM (≈ 2.17 µg/mL) | MIC50 [4]: 1.4 µM (≈ 0.506 µg/mL) | MBC (Shigella [5]): 6 µM (≈ 2.17 µg/mL) | MIC90 (Mycobacterium avium [6]): 12 µM (≈ 4.34 µg/mL) | MIC50 [7]: 0.5 µM (≈ 0.181 µg/mL) | MIC (Shigella [8]): 6 µM (≈ 2.17 µg/mL) | MIC90 [17]: 6 µM (≈ 2.17 µg/mL) | MIC (Salmonella [9]): 3 µM (≈ 1.08 µg/mL) | CC50 (MT4): 140 µM | MIC (Streptococcus [10]): 0.05 µM (≈ 0.0181 µg/mL) | MIC90 [11]: 1.5 µM (≈ 0.542 µg/mL) | MIC50 [12]: 1.5 µM (≈ 0.542 µg/mL) | MIC90 [18]: 6 µM (≈ 2.17 µg/mL) | MIC50 (Mycobacterium avium [14]): 1.2 µM (≈ 0.434 µg/mL) | MIC (Staphylococcus aureus [15]): 0.05 µM (≈ 0.0181 µg/mL) | MBC (Staphylococcus aureus [16]): 0.05 µM (≈ 0.0181 µg/mL)

CC(C)(C)Nc1cc2c(cc1N)c(=O)c(C(=O)O)cn2C(C)(C)C
MIC50 [4]: 168 µM (≈ 55.7 µg/mL) | MIC90 (Mycobacterium avium [6]): > 200 µM | MIC50 [7]: > 125 µM | MIC (Shigella [8]): > 125 µM | MIC90 [17]: > 200 µM | MIC (Salmonella [9]): > 125 µM | CC50 (MT4): > 200 µM | MIC (Streptococcus [10]): > 125 µM | MIC50 [12]: > 200 µM | MIC50 [13]: > 125 µM | MIC90 [18]: > 200 µM | MIC50 (Mycobacterium avium [14]): 140 µM (≈ 46.4 µg/mL) | MIC (Staphylococcus aureus [15]): > 125 µM

CC(C)(C)Nc1cc2c(cc1[N+](=O)[O-])c(=O)c(C(=O)O)cn2C1CC1
MBC (Streptococcus [1]): 2.5 µM (≈ 0.863 µg/mL) | MBC (Salmonella [3]): 25 µM (≈ 8.63 µg/mL) | MIC50 [4]: 35 µM (≈ 12.1 µg/mL) | MBC (Shigella [5]): 25 µM (≈ 8.63 µg/mL) | MIC90 (Mycobacterium avium [6]): > 200 µM | MIC50 [7]: 2 µM (≈ 0.691 µg/mL) | MIC (Shigella [8]): 25 µM (≈ 8.63 µg/mL) | MIC90 [17]: > 200 µM | MIC (Salmonella [9]): 25 µM (≈ 8.63 µg/mL) | CC50 (MT4): 192 µM | MIC (Streptococcus [10]): 0.6 µM (≈ 0.207 µg/mL) | MIC90 [11]: 5 µM (≈ 1.73 µg/mL) | MIC50 [12]: 16 µM (≈ 5.53 µg/mL) | MIC50 [13]: > 125 µM | MIC90 [18]: > 200 µM | MIC50 (Mycobacterium avium [14]): 54 µM (≈ 18.6 µg/mL) | MIC (Staphylococcus aureus [15]): 0.6 µM (≈ 0.207 µg/mL) | MBC (Staphylococcus aureus [16]): 1.2 µM (≈ 0.414 µg/mL)

O=C(O)c1cn(C2CC2)c2cc(NC3CC3)c([N+](=O)[O-])cc2c1=O
MBC (Streptococcus [1]): 0.8 µM (≈ 0.263 µg/mL) | MIC90 [2]: 100 µM (≈ 32.9 µg/mL) | MBC (Salmonella [3]): 1.5 µM (≈ 0.494 µg/mL) | MIC50 [4]: ≥ 200 µM | MBC (Shigella [5]): 1.5 µM (≈ 0.494 µg/mL) | MIC50 [7]: 3.2 µM (≈ 1.05 µg/mL) | MIC (Shigella [8]): 1.5 µM (≈ 0.494 µg/mL) | MIC90 [17]: > 200 µM | MIC (Salmonella [9]): 1.5 µM (≈ 0.494 µg/mL) | CC50 (MT4): 40 µM | MIC (Streptococcus [10]): 0.8 µM (≈ 0.263 µg/mL) | MIC90 [11]: 50 µM (≈ 16.5 µg/mL) | MIC50 [12]: 72 µM (≈ 23.7 µg/mL) | MIC50 [13]: 3.6 µM (≈ 1.19 µg/mL) | MIC90 [18]: > 200 µM | MIC50 (Mycobacterium avium [14]): > 200 µM | MIC (Staphylococcus aureus [15]): 0.8 µM (≈ 0.263 µg/mL) | MBC (Staphylococcus aureus [16]): 1.5 µM (≈ 0.494 µg/mL)

Nc1cc2c(=O)c(C(=O)O)cn(C3CC3)c2cc1NC1CC1
MBC (Streptococcus [1]): 50 µM (≈ 15 µg/mL) | MIC50 [4]: > 200 µM | MIC90 (Mycobacterium avium [6]): > 200 µM | MIC50 [7]: 156 µM (≈ 46.7 µg/mL) | MIC (Shigella [8]): > 200 µM | MIC (Salmonella [9]): > 200 µM | CC50 (MT4): 200 µM | MIC (Streptococcus [10]): 50 µM (≈ 15 µg/mL) | MIC90 [11]: > 200 µM | MIC50 [12]: > 200 µM | MIC50 [13]: 200 µM (≈ 59.9 µg/mL) | MIC50 (Mycobacterium avium [14]): 129 µM (≈ 38.6 µg/mL) | MIC (Staphylococcus aureus [15]): 25 µM (≈ 7.48 µg/mL) | MBC (Staphylococcus aureus [16]): 25 µM (≈ 7.48 µg/mL)
